From patent US4638070A, “Heterocyclic amino-alcohol derivatives” (Continental Pharma, priority 1980, dated 1987)

Key:
[1] = Acute toxicity, oral, LD50 (Litchfield and Wilcoxon); settings: mouse, in vivo, fasted male mice, confidence limits p=95% in brackets
Experimental: (1) The acute toxicity was determined on fasted male mice. The tested substances were orally administered and LD50 values (lethal dose for 50% of animals) were calculated according to the method of Litchfield and Wilcoxon (J. Pharmacol. exp. Ther. 96, 94-113, 1949). These LD50 values are given in mg/kg and also, when possible, with their confidence limits for p=95%.

[2] = system: guinea-pig ileum (histamine contractions); experiment: Antispasmodic activity in vitro, contractions caused by histamine; settings: added 15 minutes before spasm-producing agent
Experimental: (§1) (4) The antispasmodic activity was measured in vitro, on guinea-pig ileum, the contractions of which were caused by histammne (Hist.), acetylcholine (Achol) or barium chloride (BaCl2). The tested products were added to perfusion bath 15 minutes before the spasm-producing agents.
(§2) The dose is given in micograms (μg) per ml of bath causing complete spasm inhibition.

[3] = system: unanaesthetized, hypertension-suffering rat; experiment: Antihypertensive activity (systolic arterial pressure), oral; format: in vivo; settings: 60 mg/kg, hypertensive rat, 3 hours
Experimental: (2) The antihypertensive activity was measured on unanaesthetized, hypertension-suffering rat. The tested substances were orally given at a rate of 60 mg/kg. The systolic arterial pressure was measured every 30 minutes for 2 hours before and for 3 hours after the tested product was given. Results are expressed as follows: […]
O: no reduction of arterial pressure.
+: reduction lower than 10 mm Hg.
++: reduction of 10 to 20 mm Hg.
+++: reduction higher than 20 mm Hg.

[4] = system: femoral artery; experiment: Vasodilator activity, femoral artery (technique of perfused paw); format: in vivo; parameters: key: O: no action; +: slight activity; ++: effect equal to half the effect of papaverine; +++: effect equal to that of papaverine; ++++: effect higher than that of papaverine; settings: intra-arterial, 30 mg/kg, anaesthetized dog, vs papaverine at same dose
Experimental: (3) The vasodilator activity was measured at the level of femoral artery on anaesthetized dog (technique of perfused paw). The tested substances were given intra-arterially at the rate of 30 mg/kg. Results are expressed with respect to papaverine tested at the same dose.
++: effect equal to half the effect of papaverine.
+++: effect equal to that of papaverine.
++++: effect higher than that of papaverine.

[5] = system: guinea-pig ileum (acetylcholine contractions); experiment: Antispasmodic activity in vitro, contractions caused by acetylcholine; settings: added 15 minutes before spasm-producing agent
Experimental: as §1, §2

| SMILES | LD50 [1] [mg/kg] | ANTISPASMODIC ACTIVITY HIST. (dose causing complete spasm inhibition) [2] [μg per ml] | ANTIHYPERTENSIVE ACTIVITY [3] | VASODILATOR ACTIVITY [4] | ANTISPASMODIC ACTIVITY ACHOL (dose causing complete spasm inhibition) [5] [μg per ml] |
| --- | --- | --- | --- | --- | --- |
| CC(NCCCCc1ccccc1)C(O)c1ccc2c(c1)CCC2 (stereo not drawn) [No 163] | 800 | 1.7 | +++ (reduction higher than 20 mm Hg) | ++ | 0.8 |
| CC(NCCOc1ccc(Cl)cc1)C(O)c1ccc2c(c1)CCC2 (stereo not drawn) [No 169] | > 4000 | 3.3 | +++ (reduction higher than 20 mm Hg) | +++ | 0.8 |
| CC1Cc2cc(C(O)C(C)NCCOc3ccccc3)ccc2S1 (stereo not drawn) [No 61] | ~4000 | 3.3 | +++ (reduction higher than 20 mm Hg) | ++ | 3.3 |
| CC(NCCCCc1ccc(Cl)cc1)C(O)c1ccc2c(c1)CCS2 (stereo not drawn) [No 29] | 1750 | 1.7 | +++ (reduction higher than 20 mm Hg) | ++ | 1.7 |
| CCC(=O)c1ccc(OCCNC(C)C(O)c2ccc3c(c2)CC(C)S3)cc1 (stereo not drawn) [No 116] | > 4000 | 0.17 | ++ (reduction of 10 to 20 mm Hg) | ++ | 3.3 |
| CC(C)C(=O)OC(c1ccc2c(c1)CCS2)C(C)NCCCCc1ccccc1 (stereo not drawn) [No 117] | 2200 | 1.7 | +++ (reduction higher than 20 mm Hg) | ++++ | 0.8 |
| CC(NCCCC(=O)c1ccc(F)cc1)C(O)c1ccc2c(c1)CCCS2 (stereo not drawn) [No 102] | > 4000 | 0.8 | +++ (reduction higher than 20 mm Hg) | ++ | 0.3 |
| CC(NCCCCc1ccccc1)C(O)c1ccc2c(c1)CCO2 (stereo not drawn) [No 35] | 430 | 0.8 | +++ (reduction higher than 20 mm Hg) | ++ | 1.7 |
| Cc1ccc(OCCNC(C)C(O)c2ccc3c(c2)CCCS3)cc1 (stereo not drawn) [No 54] | > 4000 | 3.3 | ++ (reduction of 10 to 20 mm Hg) | +++ | 3.3 |
| CC(NCCCSc1ccccc1)C(O)c1ccc2c(c1)CCCS2 (stereo not drawn) [No 37] | > 4000 | 1.7 | +++ (reduction higher than 20 mm Hg) | +++ | 1.7 |
| CCC(=O)c1ccc(OCCNC(C)C(O)c2ccc3c(c2)CCS3)cc1 (stereo not drawn) [No 108] | > 4000 | 0.8 | ++ (reduction of 10 to 20 mm Hg) | +++ | 3.3 |
| CC(NCCOc1ccccc1)C(O)c1ccc2c(c1)CCCCS2 (stereo not drawn) [No 36] | > 4000 | 3.3 | +++ (reduction higher than 20 mm Hg) | +++ | 1.7 |
| C=CCCCCCCCCCNC(C)C(O)c1ccc2c(c1)CCS2 (stereo not drawn) [No 92] | > 4000 | 16.7 | ++ (reduction of 10 to 20 mm Hg) | – | 16.7 |
| CC1Cc2cc(C(O)C(C)NCCOc3ccc(Cl)cc3)ccc2O1 (stereo not drawn) [No 84] | 1200 | 8.3 | +++ (reduction higher than 20 mm Hg) | +++ | 3.3 |
